Results on ten compounds are retold here after patent publication US20240390284A1, “IONIZABLE LIPIDS” (BRISTOL-MYERS SQUIBB COMPANY, priority 2023, published 2024).

In data set [1] the test system is HEK293 FT cells. Kind of data set: Cas9 mRNA/sgRNA LNP gene editing, amplicon sequencing indel percentage (CRISPR-DAV). To be noted: LNP formulation dosed at 20 uL into 5,000 HEK293 FT cells, four day incubation. Type of data set: cell-based. How it is done:
(§1) Lipid nanoparticles (LNPs) were generated by rapid mixing. A mixture containing ionizable lipid, DSPC, cholesterol, and DMG-PEG at a molar ratio of 45:10:44:1, respectively, in ethanol was mixed with an aqueous sample containing Cas9 mRNA and synthetic sgRNA in 100 mM sodium acetate. Molar fractions were maintained for each formulation while varying the ionizable lipid. After formulation, particles immediately neutralized by dilution into Phosphate Buffered Saline (PBS). LNP size was determined using a Wyatt Plate Reader III with default settings.
(§2) Particles were functionally tested using amplicon sequencing. For testing, each formulation was dosed at 20 uL into 5,000 HEK293 FT or Jurkat cells. After a four day incubation cells were lysed and the locus of interested was amplified with PCR primers. These PCR products are then prepared for sequencing and sequenced on a MiSeq. The sequencing data is then processed and analyzed using CRISPR-DAV, which outputs indel percentages. (Table 1) For general reference, see Xuning Wang, Charles Tilford, Isaac Neuhaus, Gabe Mintier, Qi Guo, John N Feder, Stefan Kirov, CRISPR-DAV: CRISPR NGS data analysis and visualization pipeline, Bioinformatics, Volume 33, Issue 23, December 012017, Pages 3811-3812.

Data set [2] has as its system Jurkat cells. Described as above. It counts as cell-based. To be noted: LNP formulation dosed at 20 uL into 5,000 Jurkat cells, four day incubation. How it is done:
as §1, §2

A short description of data set [3]: LNP size (average radius), Wyatt Plate Reader III. It counts as physicochemical. Particulars: LNP of ionizable lipid:DSPC:cholesterol:DMG-PEG 45:10:44:1 with Cas9 mRNA and sgRNA, 0.087 mg/ml each. How it is done:
as §1

Regarding `CCCCC/C=C/C/C=C/CCCCCCCC1OC(CCN(C)C)OC1CCCCCCC/C=C/C/C=C/CCCCC` (stereo not drawn) [Lipid 9, (2-{4,5-Bis [(8E,11E)-heptadeca-8,11-dien-1-yl]-1,3-dioxolan-2-yl}ethyl)dimethylamine], in data set [1], the “Indel % rep1 HEK293 FT” value is on record as 84.41% and the “Indel % rep2 Hek” value is listed as 66.39%. Moreover, in data set [2], the “Indel % rep1 Jurkat” value was determined as 15.29% and the “Indel % rep2 Jurkat” value is given as 10%. For the same compound, in data set [3], the “average Radius (nm) rep1” value was determined as 105 nm and the “average Radius (nm) rep2” value is reported as 101.525 nm.

Take `CCCCC/C=C\C/C=C\CCCCCC1OC(CCN(C)C)OC1CCCCC/C=C\C/C=C\CCCCC` (stereo not drawn) [Lipid 6, (2-{4,5-Bis [(6Z,9Z)-pentadeca-6,9-dien-1-yl]-1,3-dioxolan-2-yl}ethyl)dimethylamine]: in data set [1], the “Indel % rep1 HEK293 FT” value was found to be 30.63% and the “Indel % rep2 Hek” value is given as 8.87%. Moreover, in data set [2], the “Indel % rep1 Jurkat” value was found to be 13.16% and the “Indel % rep2 Jurkat” value came out at 18.09%. In data set [3], the “average Radius (nm) rep1” value is 98.825 nm and the “average Radius (nm) rep2” value was 91.175 nm.

Take `CCCCC/C=C\C/C=C\CCCCCCCC1OC(CCN(C)C)OC1CCCCCCCCCCCCCCCCC` (stereo not drawn) [Lipid 4, (2-{4-[(8Z,11Z)-heptadeca-8,11-dien-1-yl]-5-heptadecyl-1,3-dioxolan-2-yl}ethyl)dimethylamine]: in data set [1], the “Indel % rep1 HEK293 FT” value turned out to be 53.08% and the “Indel % rep2 Hek” value is reported as 62.46%. Also, in data set [2], the “Indel % rep1 Jurkat” value is given as 34.09% and the “Indel % rep2 Jurkat” value is reported as 19.69%. In data set [3], the “average Radius (nm) rep1” value was 153.05 nm and the “average Radius (nm) rep2” value came to 150.55 nm.

For `CCCCCCCC/C=C\CCCCCCCC1OC(CCN(C)C)OC1CCCCCCCCCCCCCCCCC` (stereo not drawn) [Lipid 8, (2-{4-[(8Z)-Heptadec-8-en-1-yl]-5-heptadecyl-1,3-dioxolan-2-yl}ethyl)dimethylamine], in data set [1], the “Indel % rep1 HEK293 FT” value stood at 67.32% and the “Indel % rep2 Hek” value is recorded as 74.04%. In data set [2], the “Indel % rep1 Jurkat” value was 2.26% and the “Indel % rep2 Jurkat” value is reported as 0.37%. Further, in data set [3], the “average Radius (nm) rep1” value was 135.075 nm and the “average Radius (nm) rep2” value amounted to 146.35 nm.

Consider `CCCCCCCC/C=C/CCCCCCCC1OC(CCN(C)C)OC1CCCCCCC/C=C/CCCCCCCC` (stereo not drawn) [Lipid 2, (2-{4,5-Bis [(8E)-heptadec-8-en-1-yl]-1,3-dioxolan-2-yl}ethyl)dimethylamine], for which, in data set [1], the “Indel % rep1 HEK293 FT” value is recorded as 16.5% and the “Indel % rep2 Hek” value came to 41.5%. In addition, in data set [2], the “Indel % rep1 Jurkat” value was 0.15% and the “Indel % rep2 Jurkat” value was determined as 0.09%. In data set [3], the “average Radius (nm) rep1” value was 142.825 nm and the “average Radius (nm) rep2” value was determined as 136.875 nm.

Turning to `CCCCC/C=C\C/C=C\CCCC1OC(CCN(C)C)OC1CCC/C=C\C/C=C\CCCCC` (stereo not drawn) [Lipid 5, {2-[4,5-Bis-((4Z,7Z)-trideca-4,7-dienyl)-[1,3]dioxolan-2-yl]-ethyl}-dimethyl-amine], in data set [1], the “Indel % rep1 HEK293 FT” value was 0.09% and the “Indel % rep2 Hek” value came to 0.12%. For the same compound, in data set [2], the “Indel % rep1 Jurkat” value turned out to be 0.11% and the “Indel % rep2 Jurkat” value is listed as 0.1%. In addition, in data set [3], the “average Radius (nm) rep1” value was found to be 94.25 nm and the “average Radius (nm) rep2” value is 90.275 nm.

Consider `CCCCCC=CCC=CCCCCCCCC1OC(CCN(C)C)OC1CCCCCCCCCCCCCCCCC` (stereo in doubt) [Lipid 10, (2-{4-[(8Z,11Z)-heptadeca-8,11-dien-1-yl]-5-heptadecyl-1,3-dioxolan-2-yl}ethyl)dimethylamine], for which, in data set [1], the “Indel % rep1 HEK293 FT” value stood at 51.22% and the “Indel % rep2 Hek” value came to 63.9%. In data set [2], the “Indel % rep1 Jurkat” value came to 1.75% and the “Indel % rep2 Jurkat” value came to 1.04%. For the same compound, in data set [3], the “average Radius (nm) rep1” value is 177.3 nm and the “average Radius (nm) rep2” value was 129.475 nm.

As to `CCCCCCCC/C=C/CCCCCCCC1OC(CCN(C)C)OC1CCCCCCCCCCCCCCCCC` (stereo not drawn) [Lipid 7, (2-{4-[(8E)-heptadec-8-en-1-yl]-5-heptadecyl-1,3-dioxolan-2-yl}ethyl)dimethylamine], in data set [1], the “Indel % rep1 HEK293 FT” value came to 2.58% and the “Indel % rep2 Hek” value worked out at 2.29%. Also, in data set [2], the “Indel % rep1 Jurkat” value is 0.06% and the “Indel % rep2 Jurkat” value was 0.02%. Besides, in data set [3], the “average Radius (nm) rep1” value stood at 116 nm and the “average Radius (nm) rep2” value was found to be 124.85 nm.

As to `CCCCC/C=C\C/C=C\CCCCCCCC1OC(CCCN(C)C)OC1CCCCCCC/C=C\C/C=C\CCCCC` (stereo not drawn) [Lipid 11], in data set [1], the “Indel % rep1 HEK293 FT” value is recorded as 93.59% and the “Indel % rep2 Hek” value was 95.87%. Also, in data set [2], the “Indel % rep1 Jurkat” value came out at 70.3% and the “Indel % rep2 Jurkat” value was 65.07%. In addition, in data set [3], the “average Radius (nm) rep1” value worked out at 122.675 nm and the “average Radius (nm) rep2” value came to 109.475 nm.

As for `CCCCCCCC/C=C\CCCCCCCC1OC(CCN(C)C)OC1CCCCCCC/C=C\CCCCCCCC` (stereo not drawn) [Lipid 3, (2-{4,5-Bis [(8Z)-heptadec-8-en-1-yl]-1,3-dioxolan-2-yl}ethyl)dimethylamine], in data set [1], the “Indel % rep1 HEK293 FT” value is on record as 92.23% and the “Indel % rep2 Hek” value amounted to 90.92%. Besides, in data set [2], the “Indel % rep1 Jurkat” value worked out at 77.31% and the “Indel % rep2 Jurkat” value is given as 66.37%. In data set [3], the “average Radius (nm) rep1” value came out at 92.55 nm and the “average Radius (nm) rep2” value stood at 91.525 nm.
